The source of these data is patent US20250129101A1, “Compound, Pharmaceutical Composition Comprising the Same and Method for Treating Cancer Using the Same” (NATIONAL TSING HUA UNIVERSITY, priority 2023, published 2025).

The test system of experiment [1] is 4T1 R4 cells. Put plainly: Cell viability assay, 4T1 R4 cells. It is filed as cell-based, mouse. The conditions noted are these: for CI (combination index), MTA with 7S9: 2 μM 7S9, Chou and Talalay method; for IC50: 72 hr; for Fold change in chemosensitivity (IC50 single / 7S9 combination): 2 μM 7S9. As for the experimental part:
(§1) MCF-7, MDA-MB-231, MDA-MB-468, Hs578T, 4T1, and HeLa cell lines stably expressing H2B-mCherry and eGFP-tubulin (kindly provided by Dr. Anthony A. Hyman, Max-Planck-Institute for Molecular Cell Biology and Genetics, Dresden, Germany) were cultured in high-glucose Dulbecco's Modified Eagle Medium (DMEM). SK-BR-3 cells were cultured in McCoy's Modified 5a Medium. Hs578T cells were cultured in high-glucose DMEM supplemented with an additional 0.01 mg/mL bovine insulin. […] All mentioned media were supplemented with 10% fetal bovine serum (Gibco) and 1% Penicillin/Streptomycin (Corning), and cells were incubated at 37° C. in a humidified atmosphere containing 5% CO2. HEK293 cells were cultured in HE300 medium (GMEP incorporated, Japan) and maintained in suspension culture with 125 rpm and 8% CO2.
(§2) The cancer cells were cultured in a 96-well plate at a confluence of 1000-2000 cells/well with indicated drugs for specific days. When the time was up, the culture medium in the plate was aspirated and replaced with a prepared CellTiter-Glo reagent/DMEM mixture (1:1 mix of CellTiter-Glo reagent and serum-supplemented DMEM). After incubation for 10 min, the luminescence (proportional to the number of living cells) was measured with an ELISA plate reader to determine the cell viability.

The subject of experiment [2] is 4T1 R8 cells. Briefly: Cell viability assay, 4T1 R8 cells. It is filed as cell-based, mouse. The conditions noted are these: for CI (combination index), MTA with 7S9: 2 μM 7S9, Chou and Talalay method; for IC50: 72 hr; for Fold change in chemosensitivity (IC50 single / 7S9 combination): 2 μM 7S9. As for the experimental part: as §1, §2
The subject of experiment [3] is MDA-MB-231 cells. Put plainly: Cell validation: cytotoxicity in MDA-MB-231 cells (CellTiter-Glo). The conditions noted are these: cytotoxicity in MDA-MB-231 cells; for IC50: Homo sapiens. It is filed as cell-based. An outline of the steps:
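MDA-MB-231 cells were seeded at 2000 cells/well and exposed to compounds for the specified number of days. Medium was then replaced with a 1:1 CellTiter-Glo reagent/serum-supplemented DMEM mix for 10 min, and viability was read as luminescence, proportional to living cell number.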
For orientation: ATP-based viability assays read luminescence as a measure of living cells.

The target in experiment [4] is T1, KIF2C (Homo sapiens, UniProt Q99661).
T1 construct: KIF2C (216-598 a.a.); 6xHis (C); made in house; host or cells: E. coli BL21 (DE3), pET-28a
Briefly: In vitro validation: KIF2C kinesin activity, malachite green-based phosphate colorimetric assay. It is filed as biochemical. The following applies: concentration that inhibits 50% of KIF2C activity. An outline of the steps:
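KIF2C sN+M construct (aa 216-598, C-terminal 6×His, E. coli-expressed) ATPase activity with microtubules from porcine brain tubulin or HEK293 (293Fs) cells in BRB80 (80 mM PIPES pH 6.8, 1 mM GTP, 10% DMSO), 37° C for 2 hr. Released phosphate detected by malachite green reagent, 10 min, A650.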

The mark [5] stands for this setting: Mus musculus, drug alone, read-out: IC50 (nM), Single.
Where [6] appears, read: MTA with 2 μM 7S9, read-out: IC50 (nM), Combination.

SMILES strings stand for the structures. Read-outs that look alike come from different tables or passages of the source.

T1 sequence (Q99661 216-598): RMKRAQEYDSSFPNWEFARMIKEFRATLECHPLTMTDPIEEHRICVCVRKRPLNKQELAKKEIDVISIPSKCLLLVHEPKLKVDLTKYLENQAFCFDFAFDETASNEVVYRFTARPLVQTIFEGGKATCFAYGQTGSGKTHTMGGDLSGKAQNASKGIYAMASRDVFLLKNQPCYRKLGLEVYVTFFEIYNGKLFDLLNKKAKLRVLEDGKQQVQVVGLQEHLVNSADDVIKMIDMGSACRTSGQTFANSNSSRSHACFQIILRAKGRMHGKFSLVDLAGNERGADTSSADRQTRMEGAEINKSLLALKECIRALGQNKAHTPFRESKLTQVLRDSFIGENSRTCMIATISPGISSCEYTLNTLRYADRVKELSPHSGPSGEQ

For orientation: IC50 means the concentration that inhibits the measured activity by half. `CC(=O)O[C@@]12CO[C@@H]1C[C@H](O)[C@@]1(C)C(=O)[C@H](O)C3=C(C)[C@@H](OC(=O)[C@H](O)[C@@H](NC(=O)OC(C)(C)C)c4ccccc4)C[C@@](O)([C@@H](OC(=O)c4ccccc4)[C@H]21)C3(C)C` [Docetaxel, docetaxel]: the “CI (combination index), MTA with 7S9” value in experiment [1] is reported as 0.45; in experiment [2], 0.50. Also, the figures for the IC50 in experiment [1] (setting [5]) and in experiment [2] (setting [5]) were 358 nM and 208 nM, respectively.

For `CCC1=C[C@@H]2CN(C1)Cc1c([nH]c3ccccc13)[C@@](C(=O)OC)(c1cc3c(cc1OC)N(C)[C@H]1[C@@](O)(C(=O)OC)[C@H](OC(C)=O)[C@]4(CC)C=CCN5CC[C@]31[C@@H]54)C2` [Vinorelbine, vinorelbine], the “Fold change in chemosensitivity (IC50 single / 7S9 combination)” value in experiment [1] is 69; in experiment [2] it was 43. Further, the “CI (combination index), MTA with 7S9” value in experiment [1] amounted to 0.46; in experiment [2] it was 0.51. For the same molecule, the IC50 in experiment [1] (setting [5]) is 159 nM; in experiment [2] (setting [5]), 104 nM.

Regarding `C/C(=C\c1csc(C)n1)[C@@H]1C[C@@H]2O[C@]2(C)CCC[C@H](C)[C@H](O)[C@@H](C)C(=O)C(C)(C)[C@@H](O)CC(=O)N1` [Ixabepilone, ixabepilone], the concentration for half-maximal inhibition (IC50) in experiment [1] (setting [5]) came out at 358 nM; in experiment [2] (setting [5]), 234 nM.

As for `C=C1C[C@@H]2CC[C@@]34C[C@H]5O[C@H]6[C@@H](O3)[C@H]3O[C@H](CC[C@@H]3O[C@H]6[C@H]5O4)CC(=O)C[C@@H]3[C@@H](OC)[C@@H](C[C@H](O)CN)O[C@H]3C[C@H]3O[C@@H](CC[C@@H]1O2)C[C@@H](C)C3=C` [Eribulin, eribulin], the “Fold change in chemosensitivity (IC50 single / 7S9 combination)” value in experiment [1] is given as 30; in experiment [2] it was 21. For the same molecule, the “CI (combination index), MTA with 7S9” value in experiment [1] was 0.48; in experiment [2], 0.54. Besides, the IC50 in experiment [1] (setting [6]) was determined as 14.5 nM; in experiment [1] (setting [5]) it was 442 nM; in experiment [2] (setting [6]), 13.6 nM; in experiment [2] (setting [5]), 284 nM.

For orientation: EC50 means the concentration that produces a half-maximal response. Low values mean higher potency in that assay, high ones lower potency in that assay. The molecule `COc1ccc(/C=c2\sc3n(c2=O)C(c2ccc(Cl)cc2)C(C(=O)OC(C)C)=C(C)N=3)cc1` (centres unmarked) [3S0 (23), isopropyl (Z)-5-(4-chlorophenyl)-2-(4-methoxybenzylidene)-7-methyl-3-oxo-2,3-dihydro-5H-thiazolo[3,2-a]pyrimidine-6-carboxylate] came in with an IC50 in experiment [3] above 50 µM. The EC50 in experiment [4] is above 100 µM.

The molecule `COC(=O)COc1ccc(/C=c2\sc3n(c2=O)C(c2ccc(Cl)cc2)C(C(=O)OC(C)C)=C(C)N=3)cc1` (centres unmarked) [46S0 (25), isopropyl (Z)-5-(4-chlorophenyl)-2-(4-(2-methoxy-2-oxoethoxy)benzylidene)-7-methyl-3-oxo-2,3-dihydro-5H-thiazolo[3,2-a]pyrimidine-6-carboxylate] showed an IC50 in experiment [3] above 50 µM. This molecule also had an EC50 in experiment [4] above 100 µM.

As to `CC1=C(C(=O)OCc2ccccc2)C(c2ccc(Cl)cc2)n2c(s/c(=C\c3ccc(OCC(=O)N4CCN(C)CC4)cc3)c2=O)=N1` (centres unmarked) [29S0 (97), benzyl (Z)-5-(4-chlorophenyl)-7-methyl-2-(4-(2-(4-methylpiperazin-1-yl)-2-oxoethoxy)benzylidene)-3-oxo-2,3-dihydro-5H-thiazolo[3,2-a]pyrimidine-6-carboxylate], the “Cell validation (IC50)” value in experiment [3] is recorded as “+ + +”. Besides, the EC50 in experiment [4] is 50 to 100 µM.

The molecule `CC1=C(C(=O)O)C(c2ccc(N(C)C)cc2)n2c(s/c(=C\c3ccc(OCC(=O)N4CCN(C)CC4)cc3)c2=O)=N1` (centres unmarked) [Compound 142] showed an IC50 in experiment [3] above 50 µM. In experiment [4], this molecule showed an EC50 of 50 to 100 µM.

Turning to `COc1ccc(C2C(C(=O)OC(C)C)=C(C)N=c3s/c(=C\c4ccc(OCC(=O)O)cc4)c(=O)n32)cc1` (centres unmarked) [41S0 (60), (Z)-2-(4-((6-(isopropoxycarbonyl)-5-(4-methoxyphenyl)-7-methyl-3-oxo-5H-thiazolo[3,2-a]pyrimidin-2(3H)-ylidene)methyl)phenoxy)acetic acid], the IC50 in experiment [3] is above 50 µM. The EC50 in experiment [4] was below 50 µM.

Regarding `CC1=C(C(=O)OC(C)C)C(c2ccc(Cl)cc2)n2c(s/c(=C\c3ccc(OCc4nn[nH]n4)cc3)c2=O)=N1` (centres unmarked) [33S0 (115), isopropyl (Z)-2-(4-((2H-tetrazol-5-yl)methoxy)benzylidene)-5-(4-chlorophenyl)-7-methyl-3-oxo-2,3-dihydro-5H-thiazolo[3,2-a]pyrimidine-6-carboxylate], in experiment [3], the IC50 was above 50 µM. In addition, in experiment [4], the EC50 was below 20 µM.

With `CC1=C(C(=O)OC(C)C)C(c2ccc(N(C)C)cc2)n2c(s/c(=C\c3ccc(OCC(=O)N4CCN(C)CC4)cc3)c2=O)=N1` (centres unmarked) [19S0 (56), isopropyl (Z)-5-(4-(dimethylamino)phenyl)-7-methyl-2-(4-(2-(4-methylpiperazin-1-yl)-2-oxoethoxy)benzylidene)-3-oxo-2,3-dihydro-5H-thiazolo[3,2-a]pyrimidine-6-carboxylate], in experiment [3], the “Cell validation (IC50)” value is recorded as “+ +”. Also, the EC50 in experiment [4] was below 50 µM.

`CC1=C(C(=O)OC(C)C)C(c2ccc(Cl)cc2)n2c(s/c(=C\c3ccc(OC(C)(C)C(=O)O)cc3)c2=O)=N1` (centres unmarked) [47S0 (107), (Z)-2-(4-((5-(4-chlorophenyl)-6-(isopropoxycarbonyl)-7-methyl-3-oxo-5H-thiazolo[3,2-a]pyrimidin-2(3H)-ylidene)methyl)phenoxy)-2-methylpropanoic acid]: the IC50 in experiment [3] was above 50 µM. The EC50 in experiment [4] was above 100 µM.

Consider `CC1=C(C(=O)OC(C)C)C(c2ccc(-n3ccnc3)cc2)n2c(s/c(=C\c3ccc(OCC(=O)N4CCN(C)CC4)cc3)c2=O)=N1` (centres unmarked) [21S0 (46), isopropyl (Z)-5-(4-(1H-imidazol-1-yl)phenyl)-7-methyl-2-(4-(2-(4-methylpiperazin-1-yl)-2-oxoethoxy)benzylidene)-3-oxo-2,3-dihydro-5H-thiazolo[3,2-a]pyrimidine-6-carboxylate], for which the “Cell validation (IC50)” value in experiment [3] is recorded as “+ +”. For the same molecule, the EC50 in experiment [4] lay in the range of 50 to 100 µM.

With `C#CCOc1ccc(/C=c2\sc3n(c2=O)C(c2ccc(Cl)cc2)C(C(=O)OC(C)C)=C(C)N=3)cc1` (centres unmarked) [36S0 (116), isopropyl (Z)-5-(4-chlorophenyl)-7-methyl-3-oxo-2-(4-(prop-2-yn-1-yloxy)benzylidene)-2,3-dihydro-5H-thiazolo[3,2-a]pyrimidine-6-carboxylate], in experiment [3], the IC50 was above 50 µM. The same molecule returned an EC50 in experiment [4] above 100 µM.

For `CC1=C(C(=O)OC(C)C)C(c2ccc(N(C)C)cc2)n2c(s/c(=C\c3ccc(OCC(=O)O)cc3)c2=O)=N1` (centres unmarked) [51S0 (55), (Z)-2-(4-((5-(4-(dimethylamino)phenyl)-6-(isopropoxycarbonyl)-7-methyl-3-oxo-5H-thiazolo[3,2-a]pyrimidin-2(3H)-ylidene)methyl)phenoxy)acetic acid], the IC50 in experiment [3] was above 50 µM. Moreover, in experiment [4], the EC50 is 50 to 100 µM.

Regarding `CC1=C(C(=O)O)C(c2ccc(N(C)C)cc2)n2c(s/c(=C\c3ccc(OCC(=O)N4CCC(N5CCN(C)CC5)CC4)cc3)c2=O)=N1` (centres unmarked) [Compound 149], in experiment [3], the IC50 is above 50 µM. This molecule showed an EC50 in experiment [4] below 50 µM.
